ChEMBL document CHEMBL1145028, “Retroinverso analogue of the antiviral octapeptide C8 inhibits feline immunodeficiency virus in serum” (J Med Chem, 2003)
In brackets after ≈: the same amount, converted by molar mass.

Key:
[1] = system: Feline immunodeficiency virus; test: Concentration required to inhibit feline immunodeficiency virus (FIV) replication in normal tissue culture medium; type: functional, organism-based
[2] = system: Feline immunodeficiency virus; test: Concentration required to inhibit feline immunodeficiency virus (FIV) replication in 50% normal cat serum (NCS); type: functional, organism-based

Molecule	IC50 [1]	IC50 [2]
CC[C@@H](C)[C@@H](NC(C)=O)C(=O)N[C@H](Cc1c[nH]c2ccccc12)C(=O)NCC(=O)N[C@@H](C(=O)N[C@H](Cc1c[nH]c2ccccc12)C(=O)N[C@H](CC(=O)O)C(=O)N[C@H](CCC(=O)O)C(=O)N[C@H](Cc1c[nH]c2ccccc12)C(N)=O)C(C)C	0.63 µg/mL (≈ 0.557 µM)	0.8 µg/mL (≈ 0.707 µM)
Ac-WEDWVGWI-NH2	0.15 µg/mL	5.21 µg/mL
